Results published in BindingDB's records for patent US20240190875 (Changchun Genescience Pharmaceutical Co., 2024).

Biological target: Growth hormone secretagogue receptor type 1 (Homo sapiens, UniProt Q92847)
Test: Determination of Human GHSR Agonist Activity
Description: This method was used to determine the agonism effect of the compound of the invention on the activity of human GHSR protein expressed in human GHSR/CHO stable cell line.

Sequence of Growth hormone secretagogue receptor type 1 (Q92847 whole entry): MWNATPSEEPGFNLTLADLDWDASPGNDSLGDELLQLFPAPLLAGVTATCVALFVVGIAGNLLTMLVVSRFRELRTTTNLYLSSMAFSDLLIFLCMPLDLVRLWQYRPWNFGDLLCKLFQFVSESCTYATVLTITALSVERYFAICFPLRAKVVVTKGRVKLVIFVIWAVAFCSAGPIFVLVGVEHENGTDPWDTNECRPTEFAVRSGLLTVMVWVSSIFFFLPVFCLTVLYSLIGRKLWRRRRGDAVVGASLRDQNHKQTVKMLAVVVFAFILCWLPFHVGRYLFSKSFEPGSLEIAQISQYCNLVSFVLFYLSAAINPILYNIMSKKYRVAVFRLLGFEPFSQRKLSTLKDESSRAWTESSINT

Q: `CC(C)(NC(=O)[C@@H](N)CCC(N)=O)C(=O)N[C@H](COCc1ccccc1)C(=O)N1CCC2(CC1)CN(S(C)(=O)=O)c1ccccc12` [US20240190875, Example 1] was tested. Which EC50 did it give?
A: 15.6 nM

Q: With `CC(C)C(=O)OCOC(=O)NC(C)(C)C(=O)N[C@H](COCc1ccccc1)C(=O)N1CCC2(CC1)CN(S(C)(=O)=O)c1ccccc12` [US20240190875, Example 15] as the compound, how does the EC50 read?
A: 4.3 nM

Q: With `CC(C)(NC(=O)CN)C(=O)N[C@H](COCc1ccccc1)C(=O)N1CCC2(CC1)CN(S(C)(=O)=O)c1ccccc12` [US20240190875, Example 16] as the compound, how does the EC50 read?
A: 9.8 nM

Q: Which EC50 does the source give for `Cc1oc(=O)oc1COC(=O)NC(C)(C)C(=O)N[C@H](COCc1ccccc1)C(=O)N1CCC2(CC1)CN(S(C)(=O)=O)c1ccccc12` [US20240190875, Example 17] here?
A: 24.5 nM

Q: Which EC50 does the source give for `C[n+]1cccc(C(=O)NC(C)(C)C(=O)N[C@H](COCc2ccccc2)C(=O)N2CCC3(CC2)CN(S(C)(=O)=O)c2ccccc23)c1` [US20240190875, Example 18] here?
A: 15.1 nM

Q: For `CC(=O)/C=C(/C)NC(C)(C)C(=O)N[C@H](COCc1ccccc1)C(=O)N1CCC2(CC1)CN(S(C)(=O)=O)c1ccccc12` [US20240190875, Example 19], which EC50 is on record?
A: 24.3 nM

Q: How did the EC50 turn out when `CC(C)(C)C(=O)OCOC(=O)NC(C)(C)C(=O)N[C@H](COCc1ccccc1)C(=O)N1CCC2(CC1)CN(S(C)(=O)=O)c1ccccc12` [US20240190875, Example 21] was run?
A: 18.3 nM

Q: How did the EC50 turn out when `CC(=O)OCOC(=O)NC(C)(C)C(=O)N[C@H](COCc1ccccc1)C(=O)N1CCC2(CC1)CN(S(C)(=O)=O)c1ccccc12` [US20240190875, Example 22] was run?
A: 9.3 nM
